Measured values reported in BigSolDB 2.1.

O=c1cc(-c2ccccc2)oc2c1ccc1ccccc12
Conditions	solubility (mole fraction)
in 1,4-dioxane, 288.15 K	0.0128
in 1,4-dioxane, 293.15 K	0.0158
in 1,4-dioxane, 298.15 K	0.019
in 1,4-dioxane, 303.15 K	0.0223
in 1,4-dioxane, 308.15 K	0.0259
in 1,4-dioxane, 313.15 K	0.0307
in 1,4-dioxane, 318.15 K	0.0363
in acetone, 273.15 K	0.00209
in acetone, 278.15 K	0.00273
in acetone, 283.15 K	0.00326
in acetone, 288.15 K	0.00392
in acetone, 293.15 K	0.00466
in acetone, 298.15 K	0.00546
in acetone, 303.15 K	0.00636
in acetone, 308.15 K	0.00736
in acetone, 313.15 K	0.00846
in acetone, 318.15 K	0.00963
in acetonitrile, 273.15 K	0.000628
in acetonitrile, 278.15 K	0.000846
in acetonitrile, 283.15 K	0.00105
in acetonitrile, 288.15 K	0.00126
in acetonitrile, 293.15 K	0.0015
in acetonitrile, 298.15 K	0.00176
in acetonitrile, 303.15 K	0.00204
in acetonitrile, 308.15 K	0.00242
in acetonitrile, 313.15 K	0.00291
in acetonitrile, 318.15 K	0.0034
in cyclohexane, 283.15 K	0.000138
in cyclohexane, 288.15 K	0.000189
in cyclohexane, 293.15 K	0.000246
in cyclohexane, 298.15 K	0.00031
in cyclohexane, 303.15 K	0.000391
in cyclohexane, 308.15 K	0.000477
in cyclohexane, 313.15 K	0.000573
in cyclohexane, 318.15 K	0.000694
in ethanol, 273.2 K	0.000306
in ethanol, 278.2 K	0.000475
in ethanol, 283.2 K	0.000677
in ethanol, 288.2 K	0.000892
in ethanol, 293.2 K	0.00113
in ethanol, 298.2 K	0.00136
in ethanol, 303.2 K	0.00163
in ethanol, 308.2 K	0.00197
in ethanol, 313.2 K	0.00235
in ethanol, 318.2 K	0.00277
in ethyl acetate, 273.15 K	0.00271
in ethyl acetate, 278.15 K	0.00331
in ethyl acetate, 283.15 K	0.00391
in ethyl acetate, 288.15 K	0.00461
in ethyl acetate, 293.15 K	0.00532
in ethyl acetate, 298.15 K	0.00614
in ethyl acetate, 303.15 K	0.0071
in ethyl acetate, 308.15 K	0.00824
in ethyl acetate, 313.15 K	0.00948
in ethyl acetate, 318.15 K	0.0109
in isobutanol, 273.15 K	0.000861
in isobutanol, 278.15 K	0.00118
in isobutanol, 283.15 K	0.00153
in isobutanol, 288.15 K	0.0019
in isobutanol, 293.15 K	0.00231
in isobutanol, 298.15 K	0.00279
in isobutanol, 303.15 K	0.00331
in isobutanol, 308.15 K	0.00396
in isobutanol, 313.15 K	0.00475
in isobutanol, 318.15 K	0.00554
in isopropanol, 273.2 K	0.000474
in isopropanol, 278.2 K	0.000676
in isopropanol, 283.2 K	0.00085
in isopropanol, 288.2 K	0.00105
in isopropanol, 293.2 K	0.00127
in isopropanol, 298.2 K	0.00153
in isopropanol, 303.2 K	0.00181
in isopropanol, 308.2 K	0.0022
in isopropanol, 313.2 K	0.00265
in isopropanol, 318.2 K	0.00313
in methanol, 273.2 K	0.000712
in methanol, 278.2 K	0.000934
in methanol, 283.2 K	0.00119
in methanol, 288.2 K	0.00144
in methanol, 293.2 K	0.00171
in methanol, 298.2 K	0.00203
in methanol, 303.2 K	0.00238
in methanol, 308.2 K	0.00277
in methanol, 313.2 K	0.00335
in methanol, 318.2 K	0.00398
in n-butanol, 273.15 K	0.00106
in n-butanol, 278.15 K	0.00149
in n-butanol, 283.15 K	0.00194
in n-butanol, 288.15 K	0.00244
in n-butanol, 293.15 K	0.00291
in n-butanol, 298.15 K	0.00346
in n-butanol, 303.15 K	0.00412
in n-butanol, 308.15 K	0.00487
in n-butanol, 313.15 K	0.00575
in n-butanol, 318.15 K	0.00673
in n-propanol, 273.2 K	0.000773
in n-propanol, 278.2 K	0.00105
in n-propanol, 283.2 K	0.0014
in n-propanol, 288.2 K	0.00178
in n-propanol, 293.2 K	0.00218
in n-propanol, 298.2 K	0.00261
in n-propanol, 303.2 K	0.0031
in n-propanol, 308.2 K	0.00364
in n-propanol, 313.2 K	0.00424
in n-propanol, 318.2 K	0.005
in toluene, 273.15 K	0.00423
in toluene, 278.15 K	0.00517
in toluene, 283.15 K	0.00623
in toluene, 288.15 K	0.00735
in toluene, 293.15 K	0.00862
in toluene, 298.15 K	0.01
in toluene, 303.15 K	0.0116
in toluene, 308.15 K	0.0136
in toluene, 313.15 K	0.0155
in toluene, 318.15 K	0.0178
